According to PMC8520055 (Asian Journal of Pharmaceutical Sciences, 2021):
Like-named read-outs stand apart in the source and are kept apart here.

Key:
Pharmacokinetics of ATV [1] = type: in vivo, rats; details: for metabolite plasma concentrations vs control: ATV 10 mg/kg p.o., at 7.5, 15, 30 and 60 min after KTZ 20 mg/kg i.v.
Pharmacokinetics of ATV [2] = type: in vivo, rats; details: for Plasma concentrations vs control rats: ATV 10 mg/kg p.o., rats treated with RIF 30 mg/kg i.v.
[3] = plasma 4β-HC; cited from earlier work
[4] = Hepatic disposition of ATV and GCDCA-S in rats with ANIT-induced liver injury; type: in vivo; details: ANIT-induced liver injury (Fig. S15)
[5] = Plasma and hepatic concentration of KTZ after a single oral dose; type: in vivo, rats; details: for concentration at 1 h: rat, plasma, po; for Hepatic concentration: 1 h
Cyp3a [6] = assay: Plasma GCDCA-S, cholesterol and 4β-HC after intravenous KTZ
Liver function = type: in vivo, rats
Oatps [7] = assay: Hepatic uptake of ATV and GCDCA-S after 7 d oral RIF or KTZ; type: in vivo, rats; details: for hepatic uptake of ATV: inhibitor p.o. 7 d (RIF 30 mg/kg, KTZ 20 mg/kg), ATV 10 mg/kg p.o., 30 min
HepaRG cells [8] = assay: Metabolism of ATV and cholesterol in HepaRG cells in presence of KTZ; type: cell-based, human; details: KTZ 10 µM, HepaRG cells (Fig. S14)
Cyp3a [9] = assay: Endogenous Cyp3a markers; type: in vivo, rats
Oatps [10] = assay: Plasma GCDCA-S, cholesterol and 4β-HC after intravenous RIF; type: in vivo, rats
Oatps [11] = assay: Endogenous substrates of Oatps; type: in vivo, rats
HepaRG cells [12] = assay: Uptake of ATV and GCDCA-S in HepaRG cells in presence of RIF; type: cell-based; details: Homo sapiens
Oatps [13] = assay: Reversibility of RIF inhibition of GCDCA-S uptake; type: in vivo, rats; details: RIF 30 mg/kg p.o. 7 d, then 7-d washout
[14] = Plasma concentration of RIF after a single oral dose; type: in vivo, rats; details: rat
Oatps [15] = details: read-out: IC50 for Oatps in vitro; cited from earlier work
[16] = cited from earlier work
[17] = KTZ single oral dose 20-80 mg/kg
[18] = RIF 30-120 mg/kg single oral dose
[19] = RIF 30-120 mg/kg single oral dose, 2 h

With CC(C)c1c(C(=O)Nc2ccccc2O)c(-c2ccccc2)c(-c2ccc(F)cc2)n1CCC(O)CC(O)CC(=O)O (stereo not drawn) [2-OH ATV, 2‑hydroxy-atorvastatin] the “metabolite plasma concentrations vs control” value (Pharmacokinetics of ATV [1]) was “significantly decreased” and the “Plasma concentrations vs control rats” value (Pharmacokinetics of ATV [2]) was “markedly higher”.
For CC(C)c1c(C(=O)Nc2ccc(O)cc2)c(-c2ccccc2)c(-c2ccc(F)cc2)n1CC[C@@H](O)C[C@@H](O)CC(=O)O [4-OH ATV, 4‑hydroxy-atorvastatin], the “metabolite plasma concentrations vs control” value (Pharmacokinetics of ATV [1]) was “significantly decreased” and the “Plasma concentrations vs control rats” value (Pharmacokinetics of ATV [2]) was “markedly higher”.
In the case of CC(C)CCC[C@@H](C)[C@H]1CC[C@H]2[C@@H]3CC=C4[C@@H](O)[C@@H](O)CC[C@]4(C)[C@H]3CC[C@]12C [4β-HC, 4β-hydroxycholesterol], the half-life [3] is listed as about 17 days.
In the case of S=C=Nc1cccc2ccccc12 [ANIT, α-naphthylisothiocyanate], the “liver mRNA level of Oatp” value [4] is reported as “decreased”.
For CC(=O)N1CCN(c2ccc(OCC3COC(Cn4ccnc4)(c4ccc(Cl)cc4Cl)O3)cc2)CC1 (stereo not drawn) [KTZ, ketoconazole], the concentration at 1 h ([5]; 20 mg/kg) was 23.9 µM, the concentration at 1 h ([5]; 40 mg/kg) was 31.4 µM and the concentration at 1 h ([5]; 80 mg/kg) was 49.6 µM. For the same compound, the Hepatic concentration ([5]; single oral dose 20 mg/kg) was 87.1 µmol/kg tissue, the Hepatic concentration ([5]; single oral dose 40 mg/kg) was 119.2 µmol/kg tissue and the Hepatic concentration ([5]; single oral dose 80 mg/kg) was 160.6 µmol/kg tissue. For the same compound, the “plasma levels of cholesterol and its metabolite 4β-HC” value (Cyp3a [6]; after intravenous KTZ 20 mg/kg) was “not affected”, the “plasma concentrations of GCDCA-S” value (Cyp3a [6]; after intravenous KTZ 20 mg/kg (Fig. S9)) was “not changed” and the “KTZ level (plasma)” value (Pharmacokinetics of ATV [1]; after single i.v. KTZ 20 mg/kg, over 0-360 min (Fig. S10)) was “above 1.5 µM”. The “liver function (serum AST, ALT, ALP)” value (Liver function; KTZ 20, 40, 80 mg/kg single or multiple oral dose (Fig. S2)) was “not affect liver function”, the “hepatic uptake of ATV” value (Oatps [7]) was “minimally impacted” and the “degradation ATV to 2-OH ATV and 4-OH ATV” value (HepaRG cells [8]) was “inhibited”. The “formation of 4β-HC” value (HepaRG cells [8]) was “did not affect”, the “blood concentration of 6β-HC” value (Cyp3a [9]; KTZ multiple-dose 7 d) was “increased” and the “plasma concentrations of 4β-HC” value (Cyp3a [9]; KTZ repeated oral dose 7 d, 20-80 mg/kg) was “markedly elevated”. For the same compound, the “hepatic 6β-HC levels” value (Cyp3a [9]; [17]) was “dose-dependently decreased”, the “plasma 6β-HC levels” value (Cyp3a [9]; [17]) was “not been influenced” and the “Hepatic 4β-HC levels” value (Cyp3a [9]; KTZ single oral dose 20-80 mg/kg (Fig. S5)) was “significantly increased”.
In the case of CO[C@H]1/C=C/O[C@@]2(C)Oc3c(C)c(O)c4c(O)c(c(/C=N/N5CCN(C)CC5)c(O)c4c3C2=O)NC(=O)/C(C)=C\C=C\[C@H](C)[C@H](O)[C@@H](C)[C@@H](O)[C@@H](C)[C@H](OC(C)=O)[C@@H]1C [RIF, rifampicin], the “plasma concentrations of GCDCA-S” value (Oatps [10]; after intravenous RIF 30 mg/kg) is reported as “significantly increased”, the “plasma concentration of cholesterol and 4β-HC” value (Oatps [10]; after intravenous RIF 30 mg/kg (Fig. S7)) is reported as “did not affect” and the “hepatic uptake of CP I/III” value (Oatps [11]; [18]) is reported as “did not inhibit”. For the same compound, the “plasma concentrations of CP I/III” value (Oatps [11]; [18]) was “did not affect”, the “biosynthesis of GCDCA-S from GCDCA in the liver” value (Oatps [11]; RIF 30-120 mg/kg single oral dose (Fig. S3)) was “did not affect” and the “hepatic uptake ratio of CA, GCA, GUDCA, TCDCA, TUDCA, THDCA, TLCA and GCDCA-S” value (Oatps [11]; [19]) was “decreased”. For the same compound, the “plasma CA, CDCA, HDCA, GCA, GUDCA, TCDCA, TDCA, THDCA and GCDCA-S levels” value (Oatps [11]; [19]) was “dose-dependently increased”, the IC50 (HepaRG cells [12]; read-out: IC50 for uptake of ATV) was 1 µM and the IC50 (HepaRG cells [12]; read-out: IC50 for uptake of GCDCA-S) was 9.8 µM. The “liver function (serum AST, ALT, ALP)” value (Liver function; RIF 30, 60, 120 mg/kg single oral dose (Fig. S2)) was “not affect liver function”, the “effect on the hepatic uptake of GCDCA-S after washout” value (Oatps [13]) was “fully reversed” and the “plasma GCDCA-S level vs vehicle-treated rats after washout” value (Oatps [13]) was “not significant different”. The “plasma RIF level” value (Pharmacokinetics of ATV [2]; after single i.v. RIF 30 mg/kg, over 0-360 min (Fig. S8)) was “above 5.5 µM”, the concentration at 2 h ([14]; 30 mg/kg) was 11.6 µM and the concentration at 2 h ([14]; 60 mg/kg) was 22.4 µM. The concentration at 2 h ([14]; 120 mg/kg) was 26.5 µM, the “hepatic uptake of GCDCA-S” value (Oatps [7]; RIF 30 mg/kg p.o. 7 d) was “decreased” and the “plasma concentration of GCDCA-S” value (Oatps [7]; RIF 30 mg/kg p.o. 7 d) was “significantly increased”. The “hepatic uptake of ATV” value (Oatps [7]) was “greatly attenuated”, the IC50 (Oatps [15]) was 0.14 to 1.7 µM and the plasma unbound fraction [16] was 0.265.
